What all share (test): Example 1: quantification of 4M3H on cotton fabric with 14-methylhexadecanoic acid
One assay concerns M. osloensis NCIMB10693. It counts as cell-based, Moraxella osloensis. On the procedure:
(§1) 10 mL of methanol was added to the towel that had been left to stand still for 24 hours, and 1 mL of the methanol was mixed with 1 mL of ADAM (9-anthrydiazomethanene, manufactured by Funakoshi Corp., 0.1 w/v %). The mixture was left to stand for 60 minutes at room temperature, and thus derivatization was carried out.
(§2) Thereafter, 10 μL of the solution was analyzed by using LC-FL (liquid chromatography apparatus: HITACHI ELITE LaChrom (trade name, manufactured by Hitachi, Ltd.), column: Lichrosphere 100 RP-8(e) (trade name, manufactured by Agilent Technologies, Inc., 5 μm×125 mm×4 mmφ), column temperature: 40° C., eluent a mixed solution of acetonitrile/water=7/3 (volume ratio), flow rate: 1.0 mL/min, detector: excitation wavelength (365 nm), measurement wavelength (412 nm)), and thereby quantification of 4M3H thus produced was carried out. In regard to the amount of production of 4M3H, a sample which produced 4M3H in an amount of more than 1 μg was rated as “[…]”; a sample which produced 4M3H in an amount of more than 0.1 μg and 1 μg or less was rated as “∘”; a sample which produced 4M3H in an amount of more than 0 μg and 0.1 μg or less was rated as “Δ”; and a sample in which no 4M3H was detected was rated as “x”.
(§3) One platinum loop of each of Moraxella osloensis NCIMB10693, Moraxella sp. 4-1, Psychrobacter pacificensis NBRC103191, Psychrobacter glacincola NCIMB101053, Pseudomonas alcaligenes No. 41, Acinetobacter calcoaceticus HH2BD-49, Saccaromyces cerevisiae NBRC1661, Rhodotorula mucilaginosa NBRC0909 and Rhodotorula slooffiae 13c was inoculated into 5 mL of a SCD liquid medium (manufactured by Nihon Pharmaceutical Co., Ltd.), and the microbial cells were subjected to shaking culture (160 rpm) at 35° C. for 24 hours. The microbial cells obtained after culture were centrifuged (8000×g, 10 minutes), the supernatant was removed, and then the microbial cells were suspended in 5 mL of physiological saline. The suspension was centrifuged again (8000×g, 10 minutes), subsequently the supernatant was removed, and a microbial suspension was prepared by using physiological saline such that the OD600 would be 0.1.
(§4) Furthermore, 0.1 mL each of 10-ppm or 100-ppm aqueous solutions of the compounds shown in the following Table 6 was applied on the fabric described above. As a control, a fabric on which sterilized water was applied instead of the compounds described below was also prepared.
(§5) On a plain-woven cotton fabric prepared as described above, 0.1 mL each of the various microbial suspensions was inoculated, and the samples were left to stand still under humidified conditions at 37° C. for 24 hours and were subjected to an evaluation such as described below.
(§6) Quantification of 4M3H was carried out by the same method as that used in Test Example 3, and by taking as a reference the 4M3H production amount of a sample on which sterilized water was applied as a test substance, the 4M3H production amounts in the case of applying other test substances were evaluated on the basis of the following criteria. • A: (4M3H production amount in the case of applying a test substance)<( 1/100 of the 4M3H production amount in the case of applying sterilized water) • B: ( 1/100 of the 4M3H production amount in the case of applying sterilized water)≦(4M3H production amount in the case of applying a test substance)<( 1/10 of the 4M3H production amount in the case of applying sterilized water) • C: ( 1/10 of the 4M3H production amount in the case of applying sterilized water)≦(4M3H production amount in the case of applying a test substance)<(4M3H production amount in the case of applying sterilized water) • D: (4M3H production amount in the case of applying sterilized water)≦(4M3H production amount in the case of applying a test substance)

Another assay relates to Moraxella sp. 4-1. In kind it is cell-based. The following applies: 37° C., 24 hours, vs sterilized water. On the procedure: as §1, §2, §3, §4, §5, §6
For a further assay, the system named is R. muculaginosa NBRC0909. It counts as cell-based, Rhodotorula mucilaginosa. The following applies: 37° C., 24 hours, vs sterilized water. On the procedure: as §1, §2, §3, §4, §5, §6
Another assay relates to S. cerevisiae NBRC1661. In kind it is cell-based, Saccaromyces cerevisiae. The conditions noted are these: 37° C., 24 hours, vs sterilized water. On the procedure:
as §1, §2, §3, §4, §5, §6

Assay [1] relates to P. pacificensis NBRC103191. In kind it is cell-based, Psychrobacter pacificensis. The conditions noted are these: 37° C., 24 hours, vs sterilized water. As to the method: as §1, §2, §3, §4, §5, §6
For a further assay, the system named is P. alcaligenes No. 41. In kind it is cell-based, Pseudomonas alcaligenes. The conditions noted are these: 37° C., 24 hours, vs sterilized water. On the procedure:
as §1, §2, §3, §4, §5, §6

Another assay concerns R. slooffiae 13c. It counts as cell-based, Rhodotorula slooffiae. The following applies: 37° C., 24 hours, vs sterilized water. On the procedure:
as §1, §2, §3, §4, §5, §6

Assay [2] deals with A. calcoaceticus HH2BD-49. It counts as cell-based, Acinetobacter calcoaceticus. The conditions noted are these: 37° C., 24 hours, vs sterilized water. As to the method:
as §1, §2, §3, §4, §5, §6

The test system of another assay is P. glacincola NBRC101053. It counts as cell-based, Psychrobacter glacincola. The following applies: 37° C., 24 hours, vs sterilized water. On the procedure: as §1, §2, §3, §4, §5, §6
Where [3] appears, read: 10 ppm test substance, M. osloensis NCIMB10693, cotton fabric with 14-methylhexadecanoic acid, 37° C., 24 hours, vs sterilized water.
The mark [4] stands for this setting: 100 ppm test substance, M. osloensis NCIMB10693, cotton fabric with 14-methylhexadecanoic acid, 37° C., 24 hours, vs sterilized water.
Where [5] appears, read: Faucicola osloensis, NCIMB10693, 24 h, read-out: Production amount of 4M3H.
Setting [6] is: Faucicola osloensis, 100 ppm test substance, M. osloensis NCIMB10693, cotton fabric with 14-methylhexadecanoic acid, 37° C., 24 hours, vs sterilized water, read-out: Production amount of 4M3H.

Read-outs that look alike come from different tables or passages of the source.

Take `CN(C)c1ccc(/C([S-])=C(/[S-])c2ccccc2)cc1.CN(C)c1ccc(/C([S-])=C(/[S-])c2ccccc2)cc1.[Ni]` [Bis(4-dimethylaminodithiobenzil)nickel]: the “Production amount of 4M3H” value in the assay with M. osloensis NCIMB10693 (setting [3]) was “C (( 1/10 of the 4M3H production amount in the case of applying sterilized water)≦(4M3H production amount in the case of applying a test substance)<(4M3H production amount in the case of applying sterilized water))”; with M. osloensis NCIMB10693 (setting [4]), “A ((4M3H production amount in the case of applying a test substance)<( 1/100 of the 4M3H production amount in the case of applying sterilized water))”; with Moraxella sp. 4-1 (10 ppm test substance), “B (( 1/100 of the 4M3H production amount in the case of applying sterilized water)≦(4M3H production amount in the case of applying a test substance)<( 1/10 of the 4M3H production amount in the case of applying sterilized water))”; with Moraxella sp. 4-1 (100 ppm test substance), “A ((4M3H production amount in the case of applying a test substance)<( 1/100 of the 4M3H production amount in the case of applying sterilized water))”; with R. muculaginosa NBRC0909 (10 ppm test substance), “B (( 1/100 of the 4M3H production amount in the case of applying sterilized water)≦(4M3H production amount in the case of applying a test substance)<( 1/10 of the 4M3H production amount in the case of applying sterilized water))”; in the assay with R. muculaginosa NBRC0909 (100 ppm test substance) it was “A ((4M3H production amount in the case of applying a test substance)<( 1/100 of the 4M3H production amount in the case of applying sterilized water))”. The “Production amount of 4M3H” value in the assay on S. cerevisiae NBRC1661 (10 ppm test substance) is given as “C (( 1/10 of the 4M3H production amount in the case of applying sterilized water)≦(4M3H production amount in the case of applying a test substance)<(4M3H production amount in the case of applying sterilized water))”; in the assay on S. cerevisiae NBRC1661 (100 ppm test substance), “A ((4M3H production amount in the case of applying a test substance)<( 1/100 of the 4M3H production amount in the case of applying sterilized water))”; in [1] (10 ppm test substance) it was “C (( 1/10 of the 4M3H production amount in the case of applying sterilized water)≦(4M3H production amount in the case of applying a test substance)<(4M3H production amount in the case of applying sterilized water))”; in assay [1] (100 ppm test substance), “B (( 1/100 of the 4M3H production amount in the case of applying sterilized water)≦(4M3H production amount in the case of applying a test substance)<( 1/10 of the 4M3H production amount in the case of applying sterilized water))”; with P. alcaligenes No. 41 (10 ppm test substance), “C (( 1/10 of the 4M3H production amount in the case of applying sterilized water)≦(4M3H production amount in the case of applying a test substance)<(4M3H production amount in the case of applying sterilized water))”; in the assay with P. alcaligenes No. 41 (100 ppm test substance), “A ((4M3H production amount in the case of applying a test substance)<( 1/100 of the 4M3H production amount in the case of applying sterilized water))”. In addition, the “Production amount of 4M3H” value is reported as “C (( 1/10 of the 4M3H production amount in the case of applying sterilized water)≦(4M3H production amount in the case of applying a test substance)<(4M3H production amount in the case of applying sterilized water))” in the assay on R. slooffiae 13c (10 ppm test substance); “A ((4M3H production amount in the case of applying a test substance)<( 1/100 of the 4M3H production amount in the case of applying sterilized water))” in the assay on R. slooffiae 13c (100 ppm test substance); “B (( 1/100 of the 4M3H production amount in the case of applying sterilized water)≦(4M3H production amount in the case of applying a test substance)<( 1/10 of the 4M3H production amount in the case of applying sterilized water))” in [2] (10 ppm test substance); “A ((4M3H production amount in the case of applying a test substance)<( 1/100 of the 4M3H production amount in the case of applying sterilized water))” in [2] (100 ppm test substance); “A ((4M3H production amount in the case of applying a test substance)<( 1/100 of the 4M3H production amount in the case of applying sterilized water))” with P. glacincola NBRC101053 (10 ppm test substance); “A ((4M3H production amount in the case of applying a test substance)<( 1/100 of the 4M3H production amount in the case of applying sterilized water))” in the assay with P. glacincola NBRC101053 (100 ppm test substance).

Regarding `O=C/C=C/c1ccccc1` [Cinnamic aldehyde], in the assay with M. osloensis NCIMB10693 (setting [5]), the activity at 10 ppm fell in the range of 10 to 100% and the activity at 100 ppm was under 1%.

As to `CCCCCCCCCCCC[N+](C)(C)C` [Dodecyl trimethyl ammonium chloride], in the assay on M. osloensis NCIMB10693 (setting [5]), the activity at 100 ppm lay within 10 to 100%.

As for `CCCCCCCCCCCCCCCC[N+](C)(C)C` [Hexadecyl trimethyl ammonium chloride], the activity at 100 ppm in the assay on M. osloensis NCIMB10693 (setting [5]) was over 100%.

Consider `CCCCC/C=C\C/C=C\CCCCCCCC(=O)O` [Linoleic acid], for which the activity at 100 ppm with M. osloensis NCIMB10693 (setting [6]) is 1 to 10%.

On to `CC/C=C\C/C=C\C/C=C\CCCCCCCC(=O)O` [Linolenic acid], for which, in the assay on M. osloensis NCIMB10693 (setting [6]), the activity at 100 ppm fell in the range of 1 to 10%.

In the case of `CCCCCCCCCCCCCCCC(=O)O` [Palmitic acid], the activity at 100 ppm in the assay with M. osloensis NCIMB10693 (setting [6]) lay in the range of 10 to 100%.

`CCCCCCCCCCCCCCCCCC(=O)O` [Stearic acid]: the activity at 100 ppm in the assay on M. osloensis NCIMB10693 (setting [6]) lay in the range of 10 to 100%.

For the compound `CCCCCCCCCCCCCC[N+](C)(C)C` [Tetradecyl trimethyl ammonium chloride], in the assay with M. osloensis NCIMB10693 (setting [6]), the activity at 100 ppm lay in the range of 10 to 100%.

On to Polylysine, for which the “Production amount of 4M3H” value with M. osloensis NCIMB10693 (setting [3]) is given as “D ((4M3H production amount in the case of applying sterilized water)≦(4M3H production amount in the case of applying a test substance))”; with M. osloensis NCIMB10693 (setting [4]) it was “C (( 1/10 of the 4M3H production amount in the case of applying sterilized water)≦(4M3H production amount in the case of applying a test substance)<(4M3H production amount in the case of applying sterilized water))”.

As for Polyoxyethylene (10) lauryl ether, in the assay on M. osloensis NCIMB10693 (setting [4]), the “Production amount of 4M3H” value is given as “D ((4M3H production amount in the case of applying sterilized water)≦(4M3H production amount in the case of applying a test substance))”.

For “Sodium alkylbenzene sulfonate [Sodium akylbenzene sulfonate]”, in the assay on M. osloensis NCIMB10693 (setting [4]), the “Production amount of 4M3H” value was “C (( 1/10 of the 4M3H production amount in the case of applying sterilized water)≦(4M3H production amount in the case of applying a test substance)<(4M3H production amount in the case of applying sterilized water))”.
